Source: US5157052A, “Method for inhibiting IgE production” (priority 1990, dated 1992)

How the values were obtained:
[1] = test system: IgE; test: Serum IgE response induced by FF1-4D5 + H∂A1 anti-IgD antibodies (ELISA, Assay A / Assay F); assay type: in vivo, mouse (Balb/c female)
Protocol: Mouse hybridoma cells expressing either FF1-4D5 antibody or H∂A1 antibody are thawed, established in culture, and incubated in mice as ascite tumors. FF1-4D5 antibody is a mouse IgG2a monoclonal antibody of the b allotype that binds the Fd fragment of the ∂ chain of the a allotype IgD which activates β cells through antigen internalization and processing, promoting cognate interactions with antigen-specific T cells (D. K. Goroff et al., J. Immunol. 136: 2382 (1986)). H∂A1 antibody is a mouse IgG2b of the b allotype that binds the Fc fragment of the ∂ chain of the a allotype IgD which activates β cells through crosslinking IgD (I. M. Zitron and B. L. Clevinger, J. Exp. Med. 152: 1135 (1980)). Each antibody is purified from their respective ascites tumor fluid. […] Serum from the injected mice is recovered and the mean concentration of IgE determined.
Serum levels of IgE are determined and IgE levels are shown to be inhibited in a dose dependent manner.
ELISA (enzyme linked immunosorbant assay) measurements of IgE are as follows. About 5 μg of B1E3 antibody in 100 μl borate buffered saline (pH8.5) is added to wells of a NuncImmulon II 96 well plate (DiRuscio & Assoc., St. Louis, Mo.) at 37° C. for 90 minutes. The non-bound antibody is removed by flicking the plate. Unreacted sites on the plastic plate are blocked by adding about 200 μl of a 2% solution of newborn bovine serum (NBS) in PBS at 37° C. for 60 minutes. The standard IgE (or an unknown murine serum sample) is diluted to between about 4 ng/ml-256 ng/ml in Hanks-HS (20 mM Hepes, 2% NBS in Hanks Balanced Salt Solution, Gibco, Grand Island, N.Y.) or to 1/200 to 1/1000 in Hanks-HS respectively. 100 μl of standard (or unknown dilutions) are added in triplicate to the wells of the plate and allowed to absorb to B1E3 antibody at about 37° C. for 2-4 hours. The solution is removed by flicking the plate and each well is washed with about 0.5 ml 0.05% Tween 20-PBS 5 times. About 100 μl of biotinylated R1E4, called the primary antibody, diluted to 200 ng/ml is added to all wells and incubated at about 4° C. overnight. The solution is removed by flicking the plate and washed 5 times as described above. The developing reagent (Avidin and biotin-horse radish peroxidase) is incubated in 2% NBS in PBS at ambient temperature for 30 minutes, according to manufacturer's specifications (Vector Laboratories, Burlingame, Calif.). About 100 μl of developing reagent is added to each well and incubated at ambient temperature for 30 minutes. Colorimetric substrate for the developing reagent (ABTS peroxidase substrate system, KPL, Gaithersburg, Md.) is prepared by mixing equal volumes of solutions A and B and incubating at ambient temperature for 60 minutes. The developing reagent solution is removed by flicking the plate and washed 5 times as described above. About 100 μl of the mixture of substrates is added to each well and incubated at ambient temperature for 60 minutes. The optical density of each well is determined on a BioTek ELISA reader (Biotek Instruments, Inc., Burlington, Vermont) and the absorbance data transferred electronically to a DEC VAX mainframe computer. A standard curve is fitted to the IgE standard optical densities using straight line, linear regression statistical fits. IgE in the unknown serum samples is determined by comparing the optical density of the unknown to the standard curve and multiplying that number by the dilution of serum used in the assay.
Stimulation of a transient serum IgE response in mouse with two monoclonal antibodies directed against IgD is carried out as follows.
Mouse hybridoma cells expressing either FF1-4D5 antibody or H∂Al antibody are thawed, established in culture, and incubated in CB6 F1 female mice as an ascites tumor and each immunoglobulin is purified from the ascites fluid as described above. […]

[2] = test system: IgE; test: ED50 for inhibition of IgE calculated from the examples; assay type: in vivo, mouse; details: dose to achieve 50% inhibition of IgE
Protocol: From the data in the above examples, the effective dose of each prostaglandin to achieve 50% inhibition of IgE (ED50) was calculated.

[3] = Diarrheal effects in rats; details: rat, in vivo, po
Protocol: Briefly, adult Charles River male rats weighing 210-230 g were individually housed and fasted with water available ad libitum for 24 hours prior to the test. The animals (N=6-12) received logarithmically graded prostaglandin doses orally. Immediately after administration, the animals were returned to their cages, and diarrhea, if any, was assessed on an all or none basis for 8 hours after drug treatment. The ED50 and relative potency values were calculated by the logistic method of Berkson.

[4] = Table 15, 20 μg days 3 and 4, day 8 (control 5090)
[5] = Table 15, 20 μg days 3 and 4, day -1 baseline before treatment
[6] = Table 16, 10 μg days 3 and 4, day 8 (control 8548)
[7] = Table 16, 10 μg days 3 and 4, day -1 baseline before treatment

Compound | de novo IgE synthesis ([1]; 20 μg days 3 and 4, Example 26) | IgE ± SD [1, 4] [ng/mL] | IgE ± SD [1, 5] [ng/mL] | ED50 IgE Inhibition [2] [μg/mouse/TID] | de novo IgE synthesis ([1]; 10 μg days 3 and 4, Example 27) | IgE ± SD [1, 6] [ng/mL] | IgE ± SD [1, 7] [ng/mL] | TD50 at 8 h [3] [mg/kg]
CCCCC(C)(O)C/C=C/[C@H]1[C@H](O)CC(=O)[C@@H]1CCCCCCC(=O)Oc1ccc(NC(C)=O)cc1 (mixture of isomers) [(±) 4-(acetylamino)phenyl-11α,16-dihydroxy-16-methyl-9-oxoprost-13E-en-1-oate] | inhibit de novo IgE synthesis | 1880 ± 319 | < 800 | 1.0 |  |  |  | 
CCCCC(C)(O)C/C=C/[C@H]1[C@H](O)CC(=O)[C@@H]1CCCCCCC(=O)OC (mixture of isomers) [(±) methyl 11α,16-dihydroxy-16-methyl-9-oxoprost-13E-en-1-oate] |  |  |  | 1.5 | inhibit de novo IgE synthesis | 2123 ± 257 | < 1600 | 0.36
CCCCC(C)(O)C/C=C/[C@H]1[C@H](O)CC(=O)[C@@H]1CCCCCCC(=O)O (mixture of isomers) [(±) 11α,16-dihydroxy-16-methyl-9-oxo-prost-13E-en-1-oic acid] | inhibit de novo IgE synthesis | 1499 ± 132 | 1029 ± 362 |  |  |  |  | 
CCCCC(C)(O)CCC[C@H]1[C@H](O)CC(=O)[C@@H]1CCCCCCC(=O)OC (mixture of isomers) [(±) methyl-11α,16-dihydroxy-16-methyl-9-oxoprostan-1-oate] |  |  |  | 4.8 | inhibit de novo IgE synthesis | 3844 ± 238 | < 1600 | 
CCCCC(C)(O)C/C=C/[C@H]1[C@H](O)CC(=O)[C@@H]1CCCCCCC(=O)OC(C)C (relative stereo) [(±) methylethyl-11α,16-dihydroxy-16-methyl-9-oxoprost-13E-en-1-oate] |  |  |  | 1.5 |  | 2127 ± 149 | < 1600 | 
